According to ChEMBL document CHEMBL1152346, “Hirseins A and B, daphnane diterpenoids from Thymelaea hirsuta that inhibit melanogenesis in B16 melanoma cells” (J Nat Prod, 2009):

Tests used:
B16 [1] = test: Inhibition of melanin production in mouse B16 cells at 100 uM after 48 hrs by spectrophotometry relative to control; assay type: functional; conditions: B16, 48 h
B16 [2] = test: Inhibition of melanin production in mouse B16 cells at 0.1 uM after 48 hrs by spectrophotometry relative to control; assay type: functional; conditions: B16, 48 h
[3] = Cytotoxicity against mouse B16 cells assessed as viability at 0.1 uM after 48 hrs by viacount reagent staining technique relative to control; assay type: cell-based; conditions: read-out: Activity

Row | SMILES | inhibition at 100 µM (B16 [1]) [%] | inhibition at 0.1 µM (B16 [2]) [%] | viability at 48 h, 0.1 µM [3] [%]
1 | OC[C@H]1O[C@@H](Oc2ccc(O)cc2)[C@H](O)[C@@H](O)[C@@H]1O [ARBUTIN] | 33 | – | –
2 | C=C(C)[C@@]12OC3(/C=C/CCCCC)O[C@@H]1[C@@H]1[C@@H]4O[C@]4(CO)[C@@H](O)[C@]4(O)C(=O)C(C)=C[C@H]4[C@@]1(O3)[C@H](C)[C@H]2OC(=O)/C=C/c1ccccc1 [HIRSEIN A] | – | 37 | 99.3
3 | C=C(C)[C@@]12OC3(CCCCCCCCC)O[C@@H]1[C@@H]1[C@@H]4O[C@]4(CO)[C@@H](O)[C@]4(O)C(=O)C(C)=C[C@H]4[C@@]1(O3)[C@H](C)[C@H]2OC(=O)/C=C/c1ccc(O)cc1 [HIRSEIN B] | – | 26 | 97.5
